Legend:
[1] = target: T1, 4-galactosyl-N-acetylglucosaminide 3-alpha-L-fucosyltransferase FUT5 (Homo sapiens, UniProt Q11128); assay: Inhibitory activity against fucosyltransferase (FucT V) in the presence of fucosyl acceptor N-acetyllactosamine
T1 sequence (Q11128 whole entry): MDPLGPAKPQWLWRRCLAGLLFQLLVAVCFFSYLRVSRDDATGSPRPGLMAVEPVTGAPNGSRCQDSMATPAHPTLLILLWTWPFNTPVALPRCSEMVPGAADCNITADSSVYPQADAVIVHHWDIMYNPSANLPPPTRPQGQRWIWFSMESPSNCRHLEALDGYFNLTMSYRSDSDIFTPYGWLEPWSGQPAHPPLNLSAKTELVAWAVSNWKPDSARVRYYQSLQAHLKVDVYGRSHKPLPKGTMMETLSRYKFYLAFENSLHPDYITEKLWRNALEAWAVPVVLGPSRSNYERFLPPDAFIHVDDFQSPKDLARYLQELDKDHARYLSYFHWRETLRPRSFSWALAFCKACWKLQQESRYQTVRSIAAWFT

[2] = target: T1, 4-galactosyl-N-acetylglucosaminide 3-alpha-L-fucosyltransferase FUT5; assay: Inhibitory activity against fucosyltransferase (FucT V) in the presence of 10 mM fucosyl acceptor N-acetyllactosamine
[3] = target: T1, 4-galactosyl-N-acetylglucosaminide 3-alpha-L-fucosyltransferase FUT5; assay: Inhibitory activity against fucosyltransferase (FucT V) in the presence of 1 mM fucosyl acceptor N-acetyllactosamine

IC50 [1] | IC50 [2] | IC50 [3] | Structure (SMILES)
67 µM |  |  | Nc1nc2c(ncn2[C@@H]2O[C@H](COP(=O)(O)OP(=O)(O)O)[C@@H](O)[C@H]2O)c(=O)[nH]1
> 1000 µM |  |  | NCCOP(=O)(O)OP(=O)(O)OC[C@H]1O[C@@H](n2cnc3c(O)nc(N)nc32)[C@H](O)[C@@H]1O
 | 82 µM | 45 µM | C[C@@H]1N[C@H](COP(=O)(O)OP(=O)(O)OC[C@H]2O[C@@H](n3cnc4c(O)nc(N)nc43)[C@H](O)[C@@H]2O)[C@@H](O)[C@@H]1O

Reference: ChEMBL document CHEMBL1134803, “Inhibition of fucosyltransferase V by a GDP-Azasugar” (Bioorg Med Chem Lett, 2001)
